From patent US10300058B2, “Tyrosine kinase inhibitor and uses thereof” (Xuanzhu Pharma Co., Ltd., priority 2014, dated 2019)
Read-outs that look alike come from different tables or passages of the source.

Columns and labels:
EGFR L858R = EGFR L858R (Homo sapiens (Human), UniProt P00533, L858R); assay: Mobility Shift Assay, in vitro enzyme-inhibiting activity, EGFR L858R; format: biochemical; conditions: for IC50: Km ATP; for Selectivity WT/L858R: ratio of IC50
Procedure: (§1) 1. Preparation of Reagents
(§2) 2. Preparation of a Compound Solution
(§3) (1) To the second well of a 96-well plate, 5 μL 10 mM compound (dissolved in DMSO) was added, and 95 μL 100% DMSO was added to prepare 100 μL 0.5 mM compound.
(§4) (2) To other wells, 60 μL 100% DMSO was added. 20 μL compound from the second well was added to the third well, and 4-fold dilution was further performed to get 10 diluted concentrations.
(§5) (3) To the first well and the twelfth well of the 96-well plate, 100 μL 100% DMSO was separately added, and the two wells were used as control wells.
(§6) (4) 10 μL from each well of the 96-well plate was added to another 96-well plate, and 90 μL 1-fold kinase buffer was added.
(§7) (5) 5 μL from the 96-well plate was added to another 384-well plate, for example, transferred from A1 well of the 96-well plate to A1 and A2 wells of the 384-well plate, and transferred from A2 well of the 96-well plate to A3 and A4 wells of the 384-well plate, and so on.
(§8) To 384-well plate, 10 μL 2.5-fold enzyme solution was added, and incubated at room temperature for 10 min.
(§9) (5) Kinase reaction and stop
(§10) After incubation at 28° C. for a period of time (depending on kinase), 25 μL stop solution was added.
(§11) 4. Data on percent conversion was read by Caliper.
(§12) (1) Data on enzyme activity was obtained by Caliper program;
(§13) (2) Inhibition rate of enzyme activity was calculated from the data on enzyme activity by the following formula: Inhibition rate(%)=(maximal value−the measured value of a test compound)/(maximal value-minimal value)×100,
(§14) wherein, the maximal value represents the measured value of DMSO control; and the minimal value represents the measured value of blank control.
(§15) (3) Calculation of IC50 value by XLFit excel.

Pharmacokinetics in dog = format: in vivo, male Beagle dog; conditions: Beagle dog; for pharmacokinetic properties (conclusion in words): iv and po, Tables 13 and 14; for AUC(0-t) / clearance / Vd / Cmax / Tmax / bioavailability: male, plasma; for Vd: read-out: Vss; for bioavailability: read-out: F (absolute bioavailability)
Procedure: Test animal: male Beagle dog, 3 dogs/administration route/compound, weight: 7-12 kg.
Solvent for intraveneous injection (iv) of Compound 31: 20% DMF (N,N-dimethylformamide)+20% PEG400 (polyethylene glycol 400)+60% sterile water for injection
Compound 31 (15.40 mg) was weighed, dissolved in solvent for intraveneous injection ultrasonically, and mixed homogeneously under vortexing, to get a clear and transparent compound solution at a theoretical concentration of 0.5 mg/mL.
Solvent for intraveneous injection (iv) of Compound 2, 28: 5% DMSO+10% PEG400+85% (28% HP-β-CD)
Compound 2 (20.72 mg) and Compound 28 (16.16 mg) were weighed, respectively, dissolved by adding solvent for intraveneous injection, mixed homogeneously under vortexing, placed in a 50° C. constant temperature water bath for 20 min, and mixed homogeneously under vortexing to get a clear and transparent compound solution at a theoretical concentration of 0.5 mg/mL.
Solvent for intragastric administration (po) of Compound 2, 28, 31: 0.1% Tween 80+2% HPC (hydroxypropyl cellulose)
Preparation: HPC (hydroxypropyl cellulose) (20 g) was weighed, and slowly added to purified water (1000 mL) under stirring. Tween 80 (1 mL) was added, and the mixture was stirred until it became clear, to get a solvent for intragastric administration. Compound 2 (41.77 mg), Compound 31 (31.35 mg) and Compound 28 (31.10 mg) were weighed, respectively, solvent for intragastric administration was added, and the resultant mixture was placed in a tissue grinder, and ground at a speed of 1000 r/min. After homogeneous dispersion, the solution for intragastric administration was obtained.
For PO group: 0.167, 0.5, 1, 2, 4, 6, 8, 24 h after administration.
Blood collection: 400 μL whole blood was collected from vein of dog fore limb at each time point, added to an anticoagulation tube containing K2EDTA, and centrifuged at 8000 r/min, 4° C. for 6 min in a centrifuge to separate the plasma; the separated plasma was stored in a refrigerator at −80° C.
By means of protein precipitation, to 30 μL plasma, 200 μL internal standard (acetonitrile solution containing 50 ng/mL CNX-2006) was added; the resultant mixture was vortexted for 10 min at 1500 r/min, and centrifuged at 12000 r/min for 5 min; to a suitable amount of supernatant, a suitable amount of water was added; the resultant mixture was mixed homogeneously under vortexing and analyzed by LC-MS/MS.

[1] = tested on: A431 cell (wild-type EGFR gene); assay: In vitro cytologic activity, Celltiter-Glo, A431 cells; format: cell-based; conditions: Homo sapiens, A-431, 72 h
Procedure: 1.1 Preparation of Cell Suspension
Culture medium was removed from culture bottle;
PBS was added to wash the cells; • pancreatin was added for digestion, and the cells were collected by centrifugation; • the cells were resuspended in a culture medium containing 10% fetal bovine serum, counted and adjusted to a concentration of 2×10^4/mL or 3×10^4/mL (cell viability must be greater than 90%); • the cell suspension was added to a 96-well plate, at 100 μL for each well, i.e., 2000/well for H1975 cell; 3000/well for A431 cell; and • the cells were cultured at 37° C. in 5% CO2 incubator overnight.
Dilution of a compound in DMSO (or water for injection) • (1) The compound was 5-fold diluted with DMSO from 10 mM to 2 mM, and then 4-fold diluted from 2 mM, to get 10 concentrations; • High control (HC, control without compound inhibition): 0.5% DMSO; • Low control (LC, control with compound inhibition): 1000 nM.
i. To each well, 99 μL growth medium containing 10% FBS was added, and then 1 μL diluted compound was added, the total volume of the well was […], and the final concentration of the compound was measured.
The test plate was left at room temperature, and equilibrated for 30 min. 80 μL culture medium was discarded. 60 μL CTG reagent (Celltiter-Glo kit) was added, and shaked for 2 min in a fast shaker, and was placed at room temperature for 10 min. The values were read by Envision instrument.

EGFR (d746-750) = EGFR (d746-750) (Homo sapiens (Human), UniProt P00533, DEL746-750); assay: Mobility Shift Assay, in vitro enzyme-inhibiting activity, EGFR (d746-750); format: biochemical; conditions: for IC50: Km ATP; for Selectivity WT/d746-750: ratio of IC50
Sequence of EGFR (d746-750) (P00533 other isoform, or with tags, fused parts or gaps del 1-668/del 746-750 limits assumed): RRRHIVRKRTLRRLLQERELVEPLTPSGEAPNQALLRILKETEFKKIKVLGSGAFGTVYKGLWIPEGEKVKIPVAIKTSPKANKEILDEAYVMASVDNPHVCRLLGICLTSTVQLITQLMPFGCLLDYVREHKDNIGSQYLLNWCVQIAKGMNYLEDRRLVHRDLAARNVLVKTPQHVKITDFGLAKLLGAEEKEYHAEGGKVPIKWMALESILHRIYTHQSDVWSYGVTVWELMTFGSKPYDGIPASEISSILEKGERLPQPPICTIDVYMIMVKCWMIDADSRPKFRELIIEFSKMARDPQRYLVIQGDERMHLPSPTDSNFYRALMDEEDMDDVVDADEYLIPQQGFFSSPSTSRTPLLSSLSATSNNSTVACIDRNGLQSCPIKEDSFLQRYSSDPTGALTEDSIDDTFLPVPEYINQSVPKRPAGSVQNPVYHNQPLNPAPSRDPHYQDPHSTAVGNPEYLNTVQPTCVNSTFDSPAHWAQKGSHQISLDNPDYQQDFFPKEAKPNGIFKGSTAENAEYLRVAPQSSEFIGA
Procedure: as §1, §2, §3, §4, §5, §6, §7, §8, §9, §10, §11, §12, §13, §14, §15

EGFR (d746-750)-T790M = EGFR (d746-750)-T790M (Homo sapiens (Human), UniProt P00533, DEL746-750/T790M); assay: Mobility Shift Assay, in vitro enzyme-inhibiting activity, EGFR (d746-750)-T790M; format: biochemical; conditions: Table 8; Km ATP; read-out: IC50 EGFR (d746-750)-790M
Sequence of EGFR (d746-750)-T790M (P00533 other isoform, or with tags, fused parts or gaps T790M/del 1-668/del 746-750 limits assumed): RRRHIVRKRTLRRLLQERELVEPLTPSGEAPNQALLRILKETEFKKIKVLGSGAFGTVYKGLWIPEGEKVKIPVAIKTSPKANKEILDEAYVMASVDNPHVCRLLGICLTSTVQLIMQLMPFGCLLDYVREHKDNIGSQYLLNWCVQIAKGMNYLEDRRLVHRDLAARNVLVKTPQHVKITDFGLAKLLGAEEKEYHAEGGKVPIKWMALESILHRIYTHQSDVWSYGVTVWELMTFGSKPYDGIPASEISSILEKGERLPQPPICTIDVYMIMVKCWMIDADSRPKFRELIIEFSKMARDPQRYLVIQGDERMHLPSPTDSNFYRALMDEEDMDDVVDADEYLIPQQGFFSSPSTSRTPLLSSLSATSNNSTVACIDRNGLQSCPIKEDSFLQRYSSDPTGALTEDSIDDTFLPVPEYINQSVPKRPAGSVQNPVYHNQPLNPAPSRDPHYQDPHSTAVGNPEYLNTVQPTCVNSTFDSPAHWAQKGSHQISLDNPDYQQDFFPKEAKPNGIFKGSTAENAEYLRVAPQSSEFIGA
Procedure: as §1, §2, §3, §4, §5, §6, §7, §8, §9, §10, §11, §12, §13, §14, §15

Sequence of EGFR L858R (P00533 25-1210 L858R): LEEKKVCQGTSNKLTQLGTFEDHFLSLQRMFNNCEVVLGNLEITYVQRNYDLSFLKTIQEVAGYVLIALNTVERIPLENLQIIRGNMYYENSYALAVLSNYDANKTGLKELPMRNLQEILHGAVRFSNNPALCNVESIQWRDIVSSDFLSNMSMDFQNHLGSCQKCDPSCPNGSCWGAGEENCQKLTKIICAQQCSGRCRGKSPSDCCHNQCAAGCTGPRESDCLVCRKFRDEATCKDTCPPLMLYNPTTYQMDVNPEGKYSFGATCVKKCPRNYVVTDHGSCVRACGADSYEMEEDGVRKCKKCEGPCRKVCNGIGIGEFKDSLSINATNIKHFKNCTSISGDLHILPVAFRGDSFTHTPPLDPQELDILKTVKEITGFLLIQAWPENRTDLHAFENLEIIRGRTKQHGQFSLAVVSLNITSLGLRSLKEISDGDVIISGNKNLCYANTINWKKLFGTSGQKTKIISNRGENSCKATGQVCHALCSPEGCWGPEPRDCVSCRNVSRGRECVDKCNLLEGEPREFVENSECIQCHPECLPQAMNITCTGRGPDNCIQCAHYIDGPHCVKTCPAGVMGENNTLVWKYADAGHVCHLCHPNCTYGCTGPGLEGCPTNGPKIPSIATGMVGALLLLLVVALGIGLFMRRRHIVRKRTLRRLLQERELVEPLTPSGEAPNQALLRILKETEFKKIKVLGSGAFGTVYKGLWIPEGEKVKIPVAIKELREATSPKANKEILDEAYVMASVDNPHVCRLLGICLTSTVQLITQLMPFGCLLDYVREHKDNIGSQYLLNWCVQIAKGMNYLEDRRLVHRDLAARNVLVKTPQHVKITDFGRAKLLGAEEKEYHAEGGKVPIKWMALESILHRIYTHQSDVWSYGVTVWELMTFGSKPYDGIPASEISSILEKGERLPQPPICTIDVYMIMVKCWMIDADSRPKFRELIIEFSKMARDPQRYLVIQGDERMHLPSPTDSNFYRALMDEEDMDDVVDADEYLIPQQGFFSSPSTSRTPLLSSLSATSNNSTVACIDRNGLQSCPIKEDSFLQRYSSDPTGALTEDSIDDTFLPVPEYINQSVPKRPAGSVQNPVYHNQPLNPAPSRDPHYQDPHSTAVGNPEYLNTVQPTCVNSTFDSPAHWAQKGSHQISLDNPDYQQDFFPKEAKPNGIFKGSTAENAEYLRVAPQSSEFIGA

| Compound | pharmacokinetic properties (conclusion in words) (Pharmacokinetics in dog) | AUC(0-t) (Pharmacokinetics in dog; iv, 0.5 mg/kg) [ng·h/mL] | clearance (Pharmacokinetics in dog; iv, 0.5 mg/kg) [mL/min/kg] | Vd (Pharmacokinetics in dog; iv, 0.5 mg/kg) [L/kg] | IC50 ([1]; Table 10, unit inferred) [nM] | IC50 (EGFR L858R; Table 8) [nM] | IC50 (EGFR (d746-750)-T790M) [nM] | IC50 (EGFR (d746-750); Table 8) [nM] | other results |
| --- | --- | --- | --- | --- | --- | --- | --- | --- | --- |
| C=CC(=O)Nc1cccc(Nc2nc(Nc3ccc(N4CC5(CN(C(C)=O)C5)C4)cc3OC)ncc2C(F)(F)F)c1 [Compound 31, N-(3-((2-((4-(6-acetyl-2,6-diazaspiro[3.3]heptan-2-yl)-2-methoxyphenyl)amino)-5-(trifluoromethyl)pyrimidin-4-yl)amino)phenyl)acrylamide] | good pharmacokinetic properties | 1270 | 6.67 | 0.38 | 2720 |  |  |  | IC50 (EGFR L858R; Table 7): 39.3 nM; Selectivity WT/L858R (EGFR L858R; Table 7): 5.4; AUC(0-t) (Pharmacokinetics in dog; po, 1 mg/kg): 545 ng·h/mL; Cmax (Pharmacokinetics in dog; po, 1 mg/kg): 261 ng/mL; Tmax (Pharmacokinetics in dog; po, 1 mg/kg): 1 h; bioavailability (Pharmacokinetics in dog; po, 1 mg/kg): 23%; IC50 (EGFR (d746-750); Table 7): 28.6 nM; Selectivity WT/d746-750 (EGFR (d746-750); Table 7): 7.4 |
| C=CC(=O)Nc1cccc(Nc2nc(Nc3ccc(N4CCC(N5CCOCC5)CC4)cc3OC)ncc2C(F)(F)F)c1 [Compound 28, N-(3-((2-((2-methoxy-4-(4-morpholinopiperidin-1-yl)phenyl)amino)-5-(trifluoromethyl)pyrimidin-4-yl)amino)phenyl)acrylamide] | good pharmacokinetic properties | 1580 | 5.5 | 1.1 | 703 | 11 | 0.8 | 5.5 | AUC(0-t) (Pharmacokinetics in dog; po, 1.28 mg/kg): 1820 ng·h/mL; Cmax (Pharmacokinetics in dog; po, 1.28 mg/kg): 523 ng/mL; Tmax (Pharmacokinetics in dog; po, 1.28 mg/kg): 1 h; bioavailability (Pharmacokinetics in dog; po, 1.28 mg/kg): 46% |
| C=CC(=O)Nc1cccc(Nc2nc(Nc3ccc(C4CCN(C(C)=O)CC4)cc3OC)ncc2C(F)(F)F)c1 [Compound 2, N-(3-((2-((4-(1-acetylpiperidin-4-yl)-2-methoxyphenyl)amino)-5-(trifluoromethyl)pyrimidin-4-yl)amino)phenyl)acrylamide] | good pharmacokinetic properties | 693 | 11.8 | 1.36 |  |  |  |  | IC50 (EGFR L858R; Table 5): 91.8 nM; Selectivity WT/L858R (EGFR L858R; Table 5): 3.7; AUC(0-t) (Pharmacokinetics in dog; po, 0.54 mg/kg): 528 ng·h/mL; Cmax (Pharmacokinetics in dog; po, 0.54 mg/kg): 211 ng/mL; Tmax (Pharmacokinetics in dog; po, 0.54 mg/kg): 0.5 h; bioavailability (Pharmacokinetics in dog; po, 0.54 mg/kg): 70%; IC50 ([1]; Table 9): 1850 nM; IC50 (EGFR (d746-750); Table 5): 24.2 nM; Selectivity WT/d746-750 (EGFR (d746-750); Table 5): 14.2 |
| C=CC(=O)Nc1cccc(Nc2nc(Nc3ccc(C4CCN(S(C)(=O)=O)CC4)cc3OC)ncc2C(F)(F)F)c1 [Compound 27, N-(3-((2-((2-methoxy-4-(1-(methylsulfonyl)piperidin-4-yl)phenyl)amino)-5-(trifluoromethyl)pyrimidin-4-yl)amino)phenyl)acrylamide] |  |  |  |  | 2790 | 88 | 3.6 | 36 |  |
